Measurements reported in patent US7425548B2, “Materials and methods for immune system stimulation” (Variety Chidren's Hospital, priority 2004, dated 2008).
Like-named read-outs stand apart in the source and are kept apart here.

Experiments:
CEM tumor cell line = assay: MTT cytotoxicity / cell proliferation assay; type: cell-based, human; settings: 24 hours, concentrations as high as 1000 μg/ml
Protocol: (§1) FIGS. 4A-4B show cytotoxic analysis of RR1 in normal lymphocytes (a) and tumor cell lines (b). Cells (10^6) were treated with RR1 for 24 hours and cytotoxicity assay performed using MTT cell proliferation kit (Roche Biochemicals). The percentage of surviving cells over control was plotted against RR1 concentrations.
(§2) Immunostimulating Properties. To measure the immune stimulatory property of RR1, the activation of the different subsets of lymphocytes, syntheses of cytokines such as interleukin (IL)-1β, IL-2, IL-4, IL-6, IL-10, IL-12 p70 and p40, IL-18, interferon (IFN)-α and γ, Tumor Necrosis factor (TNF)-α and β, monocyte chemo-attractant protein (MCP)-1, synthesis of nitric oxide (NO), and the extent of oxidative stress elicited in human lymphocytes was analyzed. Normal lymphocytes were isolated by the histopaque density gradient method from fresh blood drawn from healthy volunteers and utilized for various assays. Human leukemic (CEM) and multidrug resistant (CEM/VLB) cell lines were grown in RPMI medium supplemented with 10% fetal bovine serum and antibiotics in 5% CO2 incubator at 37° C.

CEM/VLB tumor cell line = assay: MTT cytotoxicity / cell proliferation assay; type: cell-based, human; settings: 24 hours, concentrations as high as 1000 μg/ml
Protocol: as §1, §2

normal lymphocytes [1] = assay: MTT cytotoxicity / cell proliferation assay; type: cell-based, human; settings: 24 hours, concentrations as high as 1000 μg/ml
Protocol: as §1, §2

normal lymphocytes [2] = assay: Quantification of cytokine and chemokine synthesis by ELISA; type: cell-based, human
Protocol: FIGS. 8A-8H show synthesis of cytokines and chemokine in RR1-induced normal lymphocytes. Normal lymphocytes from healthy volunteers were treated with RR1 (0-100 μg) at 37° C. for 24 hours in a CO2 incubator in RPMI medium. The supernatant medium was analyzed for the production of cytokines and chemokine in an ELISA procedure using reagent kits (BD Biosciences).
as §2
Quantification of Cytokine and Chemokine Synthesis. Cytokines such as IL-1β, IL-2, IL-4, IL-6, IL-10, IL-12p40, IL-12p70, IL-18, IFN-γ and TNF-α, β and chemokine, MCP-1 were quantified by ELISA procedure using kits from BD Biosciences, according to manufacturer's protocols. IFN-α was assayed using the ELISA kit of RESEARCH DIAGNOSTICS Inc. (New Jersey). In short, 50 μl of ELISA diluent is pipetted into antibody coated wells of 96 well plates followed by 100 μl of each standard and test samples, shaken for 5 seconds to mix the contents in the wells, covered with plate sealer and incubated for 2 hours at room temperature. After incubation, the contents of the wells were aspirated and washed five times with wash solution. After complete removal of the wash solution in the final wash, 100 μl of detection solution was added, covered with plate sealer, and incubated for 1 hour. The wells were washed 7 times with wash solution and added 100 μl of one step substrate reagent and incubated for 30 minutes in dark. The color development was stopped by adding 50 μl of stop solution and the absorbance were recorded at 450 nm with a reference wave length of 570 nm in a BIO-RAD Benchmark plate reader.

RAW264.7 macrophages = assay: Nonopsonized binding of FITC-zymosan A bioparticles; type: cell-based, mouse; settings: 1000 μg/ml RR1, 4° C.
Protocol: RR1 inhibits the binding and internalization of nonopsonic binding of zymosan A bioparticles in a dose-dependent manner. The cells were incubated with RR1 for 1 hour on ice (4° C.) in DMEM containing 0.5% FBS followed by zymosan A biparticles for 1 hour on ice. The cells were warmed for 7 minutes at 37° C. for internalization of zymosan A bioparticles and intracellular FITC fluorescence analyzed in a Coulter Elite flow cytometer.
Nonopsonized binding of RR1. To determine the inhibitory effect of RR1 on non-opsonized binding of zymosan A bioparticles, mouse monocyte/macrophage cells (0.5×10^6) were incubated with 0, 100, 500 and 1000 μg/ml of RR1 at 4° C. to prevent the local release of opsonins including complement (Ezekowitz, R. A. et al. J. Clin. Invest., 1985, 76:2368-2376; Brown, G. D. et al. J. Expt. Med., 2002, 196:407-412). After 1 hour incubation on ice, the cells were washed three times with pre-chilled culture medium, added FITC-conjugated zymosan A particles at a ratio of 25 particles/cell and kept on ice for another hour. The cells were washed with PBS twice and incubated in DMEM at 37° C. for 30 minutes in a CO2 incubator. The unbound zymosan particles were removed by extensive washing with medium and the intracellular fluorescence of the zymosan-FITC analyzed in a Coulter Elite flow cytometer.

RAW 264.7 cells = assay: RR1-induced TNF-α synthesis with and without CAPE, ELISA; type: cell-based, mouse; settings: RAW 264.7, RR1 0-1000 μg/ml
Protocol: The cells were pre-incubated with 10 μg/ml CAPE for 1 hour in 0.5% FBS containing DMEM medium and replaced with medium containing RR1 at varying concentrations for 4 hour at 37° C. The medium was analyzed for secreted TNF-α using ELISA protocol.
RR1-induced TNF-α synthesis. RAW 264.7 cells (0.5×10^6/ml) were plated on 6-well plates with DMEM medium containing 0.5% FBS (starvation). Once the cells were attached, medium was replaced, RR1 was added at 0, 100, 500 and 1000 μg/ml doses and incubated at 37° C. for 24 hours. The medium was analyzed for the secreted TNF-α using the ELISA kit (BD BIOSCIENCES kit, San Jose, Calif.) based on the manufacturer's protocol.
To determine the effect of NF-κB inhibitor CAPE on TNF-α synthesis, RAW 264.7 cells were treated with 10 μg/ml of CAPE for 1 hour at 37° C. followed by treatment with RR1 (0-1000 μg/ml) overnight in the incubator. The secreted TNF-α in the medium was analyzed using ELISA (BD BIOSCIENCES, San Jose, Calif.).

[3] = RR1 0-100 μg, 24 hours (FIGS. 8A-8H)

- inhibition of nonopsonic binding of FITC-zymosan A bioparticles (fluorescence intensity) (RAW264.7 macrophages): about 65%
Substance: (1,4)-α-D-glucan [RR1]
- direct cytotoxic or cell proliferating effect (MTT) (CEM tumor cell line): no direct cytotoxic or cell proliferating effect
- direct cytotoxic or cell proliferating effect (MTT) (CEM/VLB tumor cell line): no direct cytotoxic or cell proliferating effect
- direct cytotoxic or cell proliferating effect (MTT) (normal lymphocytes [1]): no direct cytotoxic or cell proliferating effect
- synthesis of IFN-γ (normal lymphocytes [2]): 90.16 pg/mL
- synthesis of IL-6 (normal lymphocytes [2]): 21833 pg/mL
- synthesis of IL-12 p40 (normal lymphocytes [2]): 918.23 pg/mL
- synthesis of IL-12 p70 (normal lymphocytes [2]): 50.19 pg/mL
- synthesis of MCP-1 (normal lymphocytes [2]): 2307 pg/mL
- production of IFN-α (normal lymphocytes [2]; 24 hours): did not induce
- production of IL-2 (normal lymphocytes [2]; 24 hours): did not induce
- production of IL-4 (normal lymphocytes [2]; 24 hours): did not induce
- production of IL-10 (normal lymphocytes [2]; 24 hours): did not induce
- production of TNF-β (normal lymphocytes [2]; 24 hours): did not induce
- RR1 concentration at which the maximum IL-12 (p40) was recorded (normal lymphocytes [2]; FIG. 8C): 10 µg/mL
- synthesis of IFN-γ (normal lymphocytes [2]; [3]): 90.16 pg
- synthesis of IL-1β (normal lymphocytes [2]; [3]): 1080 pg
- synthesis of IL-6 (normal lymphocytes [2]; [3]): 21833 pg
- synthesis of IL-12 p40 (normal lymphocytes [2]; [3]): 918.23 pg
- synthesis of IL-12 p70 (normal lymphocytes [2]; [3]): 50.19 pg
- synthesis of IL-18 (normal lymphocytes [2]; [3]): 27.47 pg
- synthesis of MCP-1 (normal lymphocytes [2]; [3]): 2307 pg
- synthesis of TNF-α (normal lymphocytes [2]; [3]): 2225 pg
- synthesis of IL-18 (normal lymphocytes [2]; at 100 pg/ml concentration): 27.47 pg/mL
- synthesis of TNF-α (normal lymphocytes [2]; at 100 pg/ml concentration): 2225 pg/mL
- synthesis of TNF-α (RAW 264.7 cells): dose-dependent increase
